Experimental data: US8815935B2, “Inhibitors of protein prenyltransferases” (The Regents of the University of California, priority 2008, dated 2014)
pIC50: −log10 of the molar value. Like-named read-outs stand apart in the source and are kept apart here. Values belong to the compound of their own block, whether it stands above or below them.

How the values were obtained:
Panc-1 = Panc-1 cell growth inhibition; assay type: cell-based, human; details: no unit printed there
Method: (§1) In FIG. 9-24 in vitro IC50 values for the GGTase I activity are reported. In Tables 7-15 in cell GI50 values for the growth inhibition of a variety of cancer cell lines (e.g., Jurkat, K562, MDA-MB-231, BT474, MCF7, MiaPaCa2, Aspc-1, Panc-1, Capan-2, CFpac-1, and MCF10a) are reported.
(§2) Panc-1 cells (Pancreatic cancer cell line) and Jurkat cells (T-cell leukemia) were treated with 12.5 μM of P5-H6 or 12.5 μM of mP5-H6a for 72 hours. The cell number was counted as described in Example 5.
(§3) Cell viability was determined by Cell Counting Kit-8 (CCK-8, Dojindo, Kumamoto, Japan) as described previously (31). Cell viability was calculated relative to the DMSO control. Cell cycle profile was analyzed by flow cytometry as described previously (32).

MiaPaCa2 = MiaPaCa2 cell growth inhibition; assay type: cell-based, human; details: no unit printed there
Method: as §1, §3

Jurkat cells = assay: Jurkat cell growth inhibition; assay type: cell-based, human
Method: In Table 4 in cell GI50 values for the growth inhibition of Jurkat cells are reported. The GI50 value is the concentration of a test compound needed to produce 50% growth inhibition in the cell type listed. In Table 4 the isolated yield of each synthetic step for the synthesis of corresponding compounds are also reported.
as §2, §3

MDA-MB-231 = MDA-MB-231 cell growth inhibition; assay type: cell-based, human; details: no unit printed there
Method: as §1, §3

K562 cells = assay: K562 cell growth inhibition; assay type: cell-based, human; details: no unit printed there
Method: K562 cells are a cell line of human erythroleukemia cells. The K562 cells were treated with P3-E5, P5-H6 or GGTI-298 (a known GGTI compound illustrated in FIG. 27) for 72 hours and then cell number was counted using cell counting kit-8 (Dojindo, Gaithersburg, Md.). Cell viability relative to the DMSO control and the known GGTI compound is plotted in FIG. 23.
as §3

CFpac-1 = CFpac-1 cell growth inhibition; assay type: cell-based, human; details: no unit printed there
Method: as §1, §3

MCF7 = MCF7 cell growth inhibition; assay type: cell-based, human; details: Homo sapiens, MCF7, Tables 8-15; no unit printed there
Method: as §1, §3

Aspc-1 = Aspc-1 cell growth inhibition; assay type: cell-based, human; details: no unit printed there
Method: as §1, §3

MCF10a = MCF10a cell growth inhibition; assay type: cell-based; details: Homo sapiens, MCF-10A, Tables 8-15; no unit printed there
Description: as §1

BT474 = BT474 cell growth inhibition; assay type: cell-based, human; details: no unit printed there
Method: as §1, §3

GGTase-I = target: T1, GGTase-I (Rattus norvegicus, UniProt P53610+Q04631); assay: In vitro GGTase-I enzyme assay (IC50, kinetics); assay type: biochemical; details: for pIC50: Tables 3, 5, 7, read-out: In vitro (enzyme assay) IC50, GGTase I; for IC50: Tables 8-15, no unit printed there (Table 7 head: μM unless otherwise specified), read-out: In vitro (GGTase I IC50)
T1 construct: purchased JENA BIOSCIENCE
Method: The GGTase-I assay was carried out using RhoA as a substrate protein, GGTase-I (JENA Bioscience) and [3H]geranylgeranyl pyrophosphate. Incubation was for 30 min at 37° C. GGTase-II (or RabGGTase) assay was carried out using YPTI as a substrate protein, GGTase-II (Calbiochem, San Diego, Calif.) plus REP1 (Calbiochem) and [3H]geranylgeranyl pyrophosphate. Incubation was for 30 min at 37° C. FIGS. 20D-20F show the three dimensional structure of GGTase I (D), FTsse (E) and GGTase II (F) which can be obtained from X-ray diffraction studies of protein crystals.
(§4) GGTase-I and FTase activities were determined by following the incorporation of radiolabeled isoprenoid [^3H]-geranylgeranyl or [^3H]-farnesyl into substrate proteins. FTase or GGTase-I (50 nM) were used to initiate reactions containing 0.4 μM of [^3H]-FPP or 0.5 μM of [^3H]-GGPP and 2 μM of MBP-tagged substrates (K-Ras4B for FTase; RhoA for GGTase-I) in 20 μl of buffer {50 mM Tris-HCl (pH 7.5), 10 mM MgCl2, […] and 5 mM DTT}. Inhibitors were added at the indicated concentrations. The final DMSO concentration was 2.5% for all samples.
(§5) Reactions were carried out for 10 min at 30° C. The reaction mixture was spotted onto a filter paper, treated with 10% trichloroacetic acid (TCA) followed by ethanol and acetone washing. The filter was counted using a scintillation counter. Kinetic assays in which the GGPP concentration was varied employed fixed concentrations of GGTase-I and RhoA, and reactions were carried out for 5 min. Similarly, fixed concentrations of GGTase-I and GGPP were used when the amount of RhoA was varied.

Capan-2 = Capan-2 cell growth inhibition; assay type: cell-based, human; details: no unit printed there
Method: as §1, §3

[1] = test system: geranylgeranylated Rheb (Rheb-CSVL) in HEK 293 cells; assay: Rheb-CSVL mobility shift in HEK 293 cells; assay type: cell-based, human; details: 48 hours
Description: Finally, we investigated in vivo effects of compounds 22 (also known as UC-22) and 23 (also known as UC-23). Human embryonic kidney (HEK) 293 cells were transfected with the Rheb-CSVL construct that expresses the geranylgeranylated form of the Rheb protein. Inhibition of the geranylgeranylation of this protein can be detected from a shift in its mobility on SDS polyacrylamide gel; the unprocessed form appears as a slowly migrating band.
Human embryonic kidney (HEK) 293 cells expressing Myc-HA tagged-Rheb-CVSL (upper) or Myc-HA tagged-Rheb-WT (lower) were treated with P3-E5 for 48 hours and then lysed. The cell lysates were run on a SDS polyacrylamide gel and immunoblotted using anti-Myc or anti-Actin antibody. The descriptors P and U indicate processed and unprocessed Rheb, respectively.
Human embryonic kidney (HEK) 293 cells expressing Myc-HA tagged-Rheb-CVSL (upper) or Myc-HA tagged-Rheb-WT (lower) were treated with mP5-H6a (also referred to as mP5-H6), or GGTI-298 for 48 hours and then lysed. Lysates were run on a SDS polyacrylamide gel and immunoblotted with anti-Myc or anti-Actin antibody.

FTase = target: T2, FTase (Rattus norvegicus, UniProt Q02293+Q04631); assay: In vitro FTase assay (K-Ras4B substrate, [3H]FPP); assay type: biochemical; details: at concentrations at which GGTase-I was inhibited by more than 90%
T2 construct: purchased JENA BIOSCIENCE
Description: To further characterize the pilot library, inhibitors of protein farnesyltransferase were identified. This was accomplished by using K-Ras4B as a substrate protein, tritiated farnesylpyrophosphate ([^3H]FPP) and protein farnesyltransferase. See Finegold, A. A., Johnson, D. I., Farnsworth, C. C., Gelb, M. H., Judd, S. R., Glomset, J. A. and Tamanoi, F. (1991) Protein geranylgeranyltransferase of Saccharomyces cerevisiae is specific for Cys-Xaa-Xaa-Leu motif and requires the CDC43 gene product but not the DPR1 gene product. Proc. Natl. Acad. Sci. USA 88, 4448-4452. […] On the other hand, the structure of the compounds P1-F11, P2-B7 and P2-E9 resemble those of GGTIs. The FTI P1-F11 resembles the GGTI P1-F10, while the FTI P2-B7 resembles the GGTI P2-C10. The FTI P2-E9 is similar to the GGTI P2-G3. Similarity of some GGTI and FTI compounds may point to common structural features between the two closely related enzymes. As described before, FTase and GGTase I have similar three-dimensional structures and a shared alpha subunit. On the other hand, FTase specific inhibitors may recognize a region(s) that is different between the two enzymes.
Examples 2-8 illustrate assays of bioactivity. These methods are applicable to the compounds of the present invention having the particular linkers and scaffolds described herein, to determine their activity. […] Varying concentrations of the two compounds were added to each enzyme reaction. The FTase (protein farnesyltransferase) assay was carried out using K-Ras4B as a substrate protein, FTase (JENA Bioscience, San Diego, Calif.) and [3H]farnesyl pyrophosphate. Incubation was for 30 min at 37° C.
as §4, §5

[2] = Tables 4, 6, 7, read-out: Jurkat cell GI50
[3] = Homo sapiens, PANC-1, Tables 8-15
[4] = Homo sapiens, MIA PaCa-2, Tables 8-15
[5] = Homo sapiens, CFPAC-1, Tables 8-15
[6] = Homo sapiens, ASPC1, Tables 8-15
[7] = Homo sapiens, Capan-2, Tables 8-15

Structure (SMILES): Cc1ccccc1S(=O)(=O)N1[C@@H](c2ccc(Cl)c(Cl)c2)C(C(=O)N[C@@H](Cc2ccccc2)C(N)=O)=C[C@H]1C(C)(C)C [P61-B11]
GI50 (Panc-1; Tables 8-15): 7.52 µM | GI50 (MiaPaCa2; Tables 8-15): 7.49 µM | GI50 (Jurkat cells; [2]): 6.9 µM | GI50 (Jurkat cells; Tables 8-15, no unit printed there, read-out: Jurkat GI50): 6.9 µM | GI50 (MDA-MB-231; Tables 8-15): 5.54 µM | GI50 (K562 cells; Tables 8-15): 6.9 µM | GI50 (CFpac-1; Tables 8-15): 2.03 µM | GI50 (MCF7): 4.74 µM | GI50 (Aspc-1; Tables 8-15): 11.5 µM | GI50 (MCF10a): 9.38 µM | GI50 (BT474; Tables 8-15): 10.6 µM | pIC50 (GGTase-I): 5.12 | IC50 (GGTase-I): 7.6 µM | GI50 (Capan-2; Tables 8-15): 11.3 µM

Structure (SMILES): CC(C)(C)[C@@H]1C=C(C(=O)N[C@@H](Cc2ccccc2)C(N)=O)[C@H](c2ccc(Br)cc2)N1S(=O)(=O)c1ccccc1Cl [P61-B09]
GI50 (Panc-1; Tables 8-15, listed as P61B9): 12 µM | GI50 (MiaPaCa2; Tables 8-15, listed as P61B9): 12.1 µM | GI50 (Jurkat cells; [2]): 8.75 µM | GI50 (Jurkat cells; Tables 8-15, no unit printed there, listed as P61B9, read-out: Jurkat GI50): 8.75 µM | GI50 (MDA-MB-231; Tables 8-15, listed as P61B9): 11.3 µM | GI50 (K562 cells; Tables 8-15, listed as P61B9): 9.18 µM | GI50 (CFpac-1; Tables 8-15, listed as P61B9): 6.3 µM | GI50 (Aspc-1; Tables 8-15, listed as P61B9): 16.8 µM | GI50 (BT474; Tables 8-15, listed as P61B9): 9.9 µM | pIC50 (GGTase-I): < 5.00 | IC50 (GGTase-I): > 10 µM | GI50 (Capan-2; Tables 8-15, listed as P61B9): 10.7 µM

Structure (SMILES): Cc1ccccc1S(=O)(=O)N1[C@@H](c2ccc(Cl)cc2)C(C(=O)N[C@@H](Cc2ccccc2)C(N)=O)=C[C@H]1C(C)(C)C [P61A6]
GI50 (Panc-1; [3]): 13 µM | GI50 (MiaPaCa2; [4]): 7.48 µM | GI50 (Jurkat cells; Homo sapiens, Jurkat, Tables 8-15, no unit printed there, read-out: Jurkat GI50): 4.89 µM | GI50 (MDA-MB-231; Homo sapiens, MDA-MB-231, Tables 8-15): 8.25 µM | GI50 (K562 cells; Homo sapiens, K562, Tables 8-15): 6.28 µM | GI50 (CFpac-1; [5]): 6.38 µM | GI50 (MCF7): 3.72 µM | GI50 (Aspc-1; [6]): 12.4 µM | GI50 (MCF10a): 13.2 µM | GI50 (BT474; Homo sapiens, BT-474, Tables 8-15): 8.64 µM | GI50 (Capan-2; [7]): 11.5 µM

Further lines, with some results ahead:

inhibition of FTase (FTase): did not inhibit FTase
Structure (SMILES): Cc1ccccc1S(=O)(=O)N1C(c2ccc(Cl)cc2)CC=C(C(=O)O)[C@@H]1c1cccc(Cl)c1 (some centres unmarked) [compound 23]
inhibition of geranylgeranylation of Rheb-CSVL (slowly migrating unprocessed band) [1]: inhibit geranylgeranylation within the cell

GI50 (Panc-1; [3]): 6.45 µM | GI50 (MiaPaCa2; [4]): 7.24 µM | GI50 (Aspc-1; [6]): 11.4 µM
Structure (SMILES): Cc1ccccc1S(=O)(=O)N1[C@@H](c2ccc(Cl)cc2)C(C(=O)N[C@@H](CC(C)C)C(N)=O)=C[C@H]1C(C)(C)C [drawing 164]
GI50 (CFpac-1; [5]): < 1.25 µM | GI50 (Capan-2; [7]): 6.69 µM
